Assays:
Assay type in all cases: biochemical
PI3K δ = molecular target: T1, PI3K δ (Homo sapiens, UniProt O00329); details: ratiometric 490 nm/574 nm
T1 construct: purchased Upstate (Lake Placid, N.Y.)
Description: Percent activities are plotted for each compound screened using the ratio of wavelengths at 490 nm/574 nm. Inhibition values were calculated relative to positive and negative controls wells and corrected for background (filled squares, filled diamonds). […] Final concentrations of enzyme, substrate and ATP were 2.6 nM, 250 nM and 50 μM. The delta RFU between reactions in the presence and absence of enzyme were obtained and used to calculate % inhibition.

PI3 delta = molecular target: T2, PI3 delta (Homo sapiens, UniProt O00329); experiment: Enhancer activity, real-time (kinetic) versus endpoint monitoring
T2 construct: purchased Upstate (Lake Placid, N.Y.)
Excerpt: (§1) Kinetic or real-time assays allow one to observe the mode of action of inhibitors and activator of enzyme activity in “real time”. Several inhibitor profiles are contemplated herein.
(§2) Another type of inhibitor profile utilizes the mode of action of enhancers. Enhancers may cause a very steep increase in activity (compared to control) within several minutes of reaction and then flatten out over time to an activity equal to that of the control. Thus, endpoint measurement could miss these enhancers. For example, Trypohostin 35, Trypohostin 25 and GW 5074 are enhancers of PI3 alpha, beta, and delta, respectively, in real time, and result in a >50% increase of activity within 5 minutes of reaction compared to ˜20% when monitored in endpoint mode. Enhancers may not be of therapeutic value for PI3Ks (since their pathological effect is exerted mainly by over-activity to begin with) but knowledge of chemical structure of enhancers may facilitate identification and/or confirmation of environmental pathogens, which may cause disease.

PI3 beta = molecular target: T3, PI3 beta (Homo sapiens, UniProt P42338); experiment: as above
T3 construct: purchased Upstate (Lake Placid, N.Y.)
T3 sequence (P42338 whole entry): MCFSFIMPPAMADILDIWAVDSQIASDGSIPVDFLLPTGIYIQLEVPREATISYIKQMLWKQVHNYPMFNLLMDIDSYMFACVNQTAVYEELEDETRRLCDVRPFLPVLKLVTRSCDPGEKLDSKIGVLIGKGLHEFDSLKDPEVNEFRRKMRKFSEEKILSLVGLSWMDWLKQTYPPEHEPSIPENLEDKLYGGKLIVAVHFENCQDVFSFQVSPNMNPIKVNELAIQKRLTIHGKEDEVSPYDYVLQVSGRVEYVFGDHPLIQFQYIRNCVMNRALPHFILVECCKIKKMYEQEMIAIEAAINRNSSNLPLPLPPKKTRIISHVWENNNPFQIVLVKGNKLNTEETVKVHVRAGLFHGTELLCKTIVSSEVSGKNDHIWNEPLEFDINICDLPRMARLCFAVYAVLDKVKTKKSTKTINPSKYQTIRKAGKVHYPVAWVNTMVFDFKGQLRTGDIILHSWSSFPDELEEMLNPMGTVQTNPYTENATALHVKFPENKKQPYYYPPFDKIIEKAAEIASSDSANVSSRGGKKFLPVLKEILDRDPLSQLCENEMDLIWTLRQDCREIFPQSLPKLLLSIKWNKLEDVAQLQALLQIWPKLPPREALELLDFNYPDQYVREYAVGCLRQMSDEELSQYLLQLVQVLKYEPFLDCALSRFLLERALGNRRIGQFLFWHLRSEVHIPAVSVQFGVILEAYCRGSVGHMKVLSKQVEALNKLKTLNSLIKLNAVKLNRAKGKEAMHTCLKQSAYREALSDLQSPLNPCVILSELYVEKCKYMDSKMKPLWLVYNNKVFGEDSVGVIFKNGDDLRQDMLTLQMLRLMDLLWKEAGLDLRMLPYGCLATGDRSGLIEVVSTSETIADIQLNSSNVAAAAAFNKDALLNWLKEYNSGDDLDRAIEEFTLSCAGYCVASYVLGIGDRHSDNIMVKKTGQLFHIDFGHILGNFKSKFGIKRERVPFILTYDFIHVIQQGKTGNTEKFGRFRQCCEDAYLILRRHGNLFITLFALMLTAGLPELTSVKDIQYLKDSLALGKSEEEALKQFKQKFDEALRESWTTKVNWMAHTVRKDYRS
T3 sequence (P27986 whole entry partner): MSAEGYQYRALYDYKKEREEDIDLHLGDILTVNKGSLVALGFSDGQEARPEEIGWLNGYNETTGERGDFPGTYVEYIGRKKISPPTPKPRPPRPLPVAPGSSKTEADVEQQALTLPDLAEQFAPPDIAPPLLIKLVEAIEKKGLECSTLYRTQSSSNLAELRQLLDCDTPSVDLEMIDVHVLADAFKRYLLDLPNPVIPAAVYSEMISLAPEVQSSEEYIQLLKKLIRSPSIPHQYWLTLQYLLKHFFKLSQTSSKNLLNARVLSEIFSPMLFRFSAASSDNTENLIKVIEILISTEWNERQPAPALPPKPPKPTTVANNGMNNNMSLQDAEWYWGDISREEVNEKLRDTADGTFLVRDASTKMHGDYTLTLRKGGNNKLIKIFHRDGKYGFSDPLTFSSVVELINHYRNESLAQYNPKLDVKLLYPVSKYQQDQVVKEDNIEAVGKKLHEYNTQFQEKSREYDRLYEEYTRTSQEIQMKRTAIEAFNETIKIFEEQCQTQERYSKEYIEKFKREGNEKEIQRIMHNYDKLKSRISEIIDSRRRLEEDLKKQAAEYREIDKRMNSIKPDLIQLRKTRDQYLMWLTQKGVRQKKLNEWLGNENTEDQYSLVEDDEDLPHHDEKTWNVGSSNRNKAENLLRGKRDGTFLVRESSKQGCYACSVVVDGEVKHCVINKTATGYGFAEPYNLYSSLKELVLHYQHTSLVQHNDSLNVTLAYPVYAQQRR
Excerpt: as §1, §2

PI3 alpha = molecular target: T4, PI3 alpha (Homo sapiens, UniProt P42336); experiment: as above
T4 construct: purchased Upstate (Lake Placid, N.Y.)
T4 sequence (P42336 whole entry, species assumed): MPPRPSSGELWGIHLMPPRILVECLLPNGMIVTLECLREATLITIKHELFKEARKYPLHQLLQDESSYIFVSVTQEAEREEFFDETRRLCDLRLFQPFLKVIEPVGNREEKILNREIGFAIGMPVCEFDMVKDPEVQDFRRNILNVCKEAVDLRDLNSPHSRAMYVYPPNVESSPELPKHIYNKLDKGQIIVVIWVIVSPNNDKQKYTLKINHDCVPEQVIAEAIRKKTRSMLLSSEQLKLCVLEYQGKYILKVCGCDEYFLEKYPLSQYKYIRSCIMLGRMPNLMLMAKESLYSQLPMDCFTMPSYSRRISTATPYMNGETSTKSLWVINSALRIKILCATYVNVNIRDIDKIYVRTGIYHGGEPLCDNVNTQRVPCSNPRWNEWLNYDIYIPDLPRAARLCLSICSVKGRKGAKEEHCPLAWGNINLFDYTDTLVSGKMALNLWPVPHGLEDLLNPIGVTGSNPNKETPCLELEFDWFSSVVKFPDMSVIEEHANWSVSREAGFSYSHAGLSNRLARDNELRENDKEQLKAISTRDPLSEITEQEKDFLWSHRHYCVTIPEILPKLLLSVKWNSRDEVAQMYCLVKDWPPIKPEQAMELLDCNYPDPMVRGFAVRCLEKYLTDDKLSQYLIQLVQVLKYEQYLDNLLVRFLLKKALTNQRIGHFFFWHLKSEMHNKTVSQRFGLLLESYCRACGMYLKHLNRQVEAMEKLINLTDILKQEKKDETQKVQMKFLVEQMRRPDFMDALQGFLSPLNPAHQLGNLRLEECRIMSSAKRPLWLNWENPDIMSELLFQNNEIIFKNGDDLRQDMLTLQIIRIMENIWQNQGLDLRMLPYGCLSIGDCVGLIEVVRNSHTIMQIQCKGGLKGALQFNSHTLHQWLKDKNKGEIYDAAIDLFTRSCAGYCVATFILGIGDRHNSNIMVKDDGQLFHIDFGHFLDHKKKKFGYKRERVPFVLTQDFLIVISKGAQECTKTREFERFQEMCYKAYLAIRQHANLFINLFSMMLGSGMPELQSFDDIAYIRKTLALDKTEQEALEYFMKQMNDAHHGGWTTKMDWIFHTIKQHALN
T4 sequence (P27986 whole entry partner, species assumed): as the sequence (P27986 whole entry partner) above
Excerpt: as §1, §2

[1] = real time, within 5 minutes of reaction

T2 sequence (O00329 whole entry, species assumed): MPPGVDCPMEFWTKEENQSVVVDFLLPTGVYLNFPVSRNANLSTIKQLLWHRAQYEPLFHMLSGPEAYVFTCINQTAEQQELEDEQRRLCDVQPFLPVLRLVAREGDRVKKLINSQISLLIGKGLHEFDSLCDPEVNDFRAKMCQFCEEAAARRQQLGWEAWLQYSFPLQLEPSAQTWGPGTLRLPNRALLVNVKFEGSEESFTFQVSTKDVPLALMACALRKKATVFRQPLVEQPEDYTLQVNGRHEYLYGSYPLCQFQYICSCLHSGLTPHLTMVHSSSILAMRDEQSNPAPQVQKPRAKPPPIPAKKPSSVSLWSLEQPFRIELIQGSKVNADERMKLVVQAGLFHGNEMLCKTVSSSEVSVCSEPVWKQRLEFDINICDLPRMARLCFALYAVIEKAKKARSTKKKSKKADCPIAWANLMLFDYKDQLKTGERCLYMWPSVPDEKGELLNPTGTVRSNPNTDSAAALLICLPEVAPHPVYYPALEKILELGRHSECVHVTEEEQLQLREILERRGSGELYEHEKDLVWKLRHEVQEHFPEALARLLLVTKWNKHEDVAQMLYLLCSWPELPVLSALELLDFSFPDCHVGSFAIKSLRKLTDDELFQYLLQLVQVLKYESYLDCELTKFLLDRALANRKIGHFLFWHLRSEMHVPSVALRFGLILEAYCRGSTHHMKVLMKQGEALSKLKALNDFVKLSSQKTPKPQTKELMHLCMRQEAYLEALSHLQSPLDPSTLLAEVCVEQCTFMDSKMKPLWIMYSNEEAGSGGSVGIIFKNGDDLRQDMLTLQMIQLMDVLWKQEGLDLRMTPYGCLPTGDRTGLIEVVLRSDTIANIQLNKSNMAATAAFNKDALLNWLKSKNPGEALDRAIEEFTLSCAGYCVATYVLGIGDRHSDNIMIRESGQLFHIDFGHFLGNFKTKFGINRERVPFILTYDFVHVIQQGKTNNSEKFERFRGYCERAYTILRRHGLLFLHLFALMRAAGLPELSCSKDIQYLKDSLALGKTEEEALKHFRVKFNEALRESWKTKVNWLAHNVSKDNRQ
T2 sequence (P27986 whole entry partner, species assumed): as the sequence (P27986 whole entry partner) above
T1 sequence (O00329 whole entry, species assumed): as the sequence (O00329 whole entry, species assumed) above
T1 sequence (P27986 whole entry partner, species assumed): as the sequence (P27986 whole entry partner) above

O.O.O=c1c(O)c(-c2ccc(O)c(O)c2)oc2cc(O)cc(O)c12 [Quercetin Dihydrate]
identification as inhibitor in the 84 compound screen (PI3K δ): correctly identified

O=C1Nc2ccc(I)cc2/C1=C/c1cc(Br)c(O)c(Br)c1 [GW 5074]
increase of activity compared to control (PI3 delta; endpoint mode): ~20%
increase of activity compared to control (PI3 delta; [1]): > 50%

N#CC(C#N)=Cc1cc(O)c(O)c(O)c1 [Trypohostin 25]
increase of activity compared to control (PI3 beta; endpoint mode): ~20%
increase of activity compared to control (PI3 beta; [1]): > 50%

Trypohostin 35
increase of activity compared to control (PI3 alpha; endpoint mode): ~20%
increase of activity compared to control (PI3 alpha; [1]): > 50%

From patent publication US20060292653A1, “Metal mediated fluorescence superquenching assays for detection of phosphorylation and dephosphorylation of quencher-labeled substrates” (priority 2005, published 2006)
